From US20060223779A1, “Method of screening for inhibitors of human Fatty Acid-CoA Ligase 4” (priority 2000, published 2006)

Key:
[1] = tested on: FACL4/COX-2 double stable cells; assay: Cell survival of FACL4/COX-2 double stable cells after TNFα or A23187; type: cell-based, human; conditions: TNFα 1 ng/ml or A23187 5 μM, 72 hr, n=3
Experimental: (§1) FIG. 5: Enzymatic “sinks” for free arachidonic acid protect against TNFα_ and calcium ionophore_mediated cell killing. (A) Determination of cell survival. The cells were induced (+Pon) or not (−Pon) for 24 hr, and TNFα (1 ng/ml) or the calcium ionophore A23187 (5 μM) was added, and the cells were incubated for another 72 hr. The surviving fraction was determined and is plotted relative to that of the same line without TNFα or A23187 treatment. Ctl denotes control cells harboring an empty vector, while FACL4/COX-2 denotes the double stable line. (B) Measurement of the free AA. The FACL4/COX-2 cells were prelabeled with [^3H] AA, induced, and stimulated with A23187 (5 μM), and [^3H] AA release was measured at the indicated time intervals. The values are from one experiment that is representative of four independent determinations.
Stable cell lines. The ecdysone inducible system (Invitrogen) was used to construct stable lines over-expressing human FACL4, COX-2, COX-2 mutant, and both FACL4 and COX-2. […] The cDNAs were cloned into pIND(SP1) (Neomycin^r). The cDNA constructs, or the empty vector pIND(SP1) were transfected into EcR293 cells, which were then selected in 400 μg/ml geneticin and 400 μg/ml zeocin. A number of single colonies were screened for over-expression of FACL4, COX-2 wild type, and COX-2 mutant by immunoblotting against anti-FACL4 (See Y. Cao et al., 467 FEBS Lett. 263-267 (2000)), and anti-COX-2 antibodies (a gift from Dr. Jacques Maclouf), and by measurement of the CoA ligase activity for FACL4 (See D. B. Wilson et al., 257 J. Biol. Chem. 3510-3515 (1992)), or the PGE2 secretion for COX-2 wild type (ELISA assay, Assay Design, Inc.). The double stable line was generated by stably transfecting the COX-2 stable cells with another pIND(SP1)-FACL4 cDNA construct, in which the FACL4 cDNA was cloned into a pIND(SP1) (hygromycin^r) vector. The cells were selected in 400 μg/ml geneticin, 400 μg/ml zeocin, and 50 μg/ml hygromycin B. The positive colonies were screened as described above.
(§2) Cell survival. Cell viability was determined with the crystal violet staining (See M. Hayakawa et al., 268 J. Biol. Chem. 11290-11295 (1993).

FACL4/COX-2 cells = assay: [3H] arachidonic acid release after A23187 (pulse-chase); type: cell-based, human; conditions: A23187 5 μM
Experimental: as §1
Arachidonic acid release. Cells were plated on 6 well-plates precoated with poly-L-lysine at 8×10^5 cells per well. They were then prelabeled with [^3H] AA (0.4 μCi/ml medium) (91.8 Ci/mmol, 100 μCi/ml, NEN) for 24 hr. After a wash, serum-free DMEM supplemented with 1% BSA (fatty acid free) was added. […] The AA release stimulated by A23187 was calculated by subtracting the released AA by unstimulated cells, from that by A23187-stimulated counterparts.

293 cells [2] = assay: Apoptosis by Cell Death Detection ELISA in 293 cells; type: cell-based, human; conditions: 44 hr
Experimental: (§3) FIG. 3: Arachidonic acid induces apoptosis via activation of caspase 3. (A) Determination of cell survival. AA was added to 293 cells at the indicated concentrations and the surviving fraction of cells was determined after 44 hr. The values shown are relative to the viability of cells that were not exposed to AA. (B) Increased apoptosis in cells exposed to AA. Cells were treated with AA (300 μM) or palmitic acid (300 μM) under the same conditions as in A, and then apoptosis was detected with an ELISA. The mean values from triplicate determinations are shown. […] The 293 cells were treated with AA (300 μM; +AA) or vehicle alone (−AA) for 44 hr. The nuclei were stained with DAPI, and DNA strand breaks in individual cells were detected with a fluorescent TUNEL assay. The upper panels are the same field of cells (−AA) photographed under UV (left panels) and FITC filters (right panels). The lower panels illustrate apoptotic cells (+AA). The magnification is 80×. (D) Immunostaining with an anti-active caspase 3 antibody. Upper panels, control cells (−AA); lower panels, cells exposed to 300 μM AA. Left panels, DAPI staining; right panels, immunostaining with an antibody selective for active caspase 3. The magnification is 100×. […] The 293 cells were preincubated with caspase inhibitors (including DMQD, a caspase 3 inhibitor, and YVAD, a caspase 1 and 4 inhibitor (Peptide Institute)) for 1 hr at the indicated concentrations, AA (300 μM) was added, and apoptosis was determined 44 hr later. The values represent the means from triplicate determinations.
(§4) Cell Death Detection ELISA. Cells were plated on 96 well-plates at 1×10^4 cells per well. AA was applied and apoptotic death was determined after 44 hr with the Cell Death Detection ELISA (Boehringer Mannheim).

293 cells [3] = assay: Cell survival (crystal violet staining) in 293 cells; type: cell-based, human; conditions: 293 cells, increasing exogenous AA concentration, 44 hr
Experimental: as §3, §2

caspase 3 = assay: Caspase 3-like activity in AA-treated cells; type: cell-based; conditions: not shown
COX-2 stable 293 cells = assay: Apoptosis in stably transfected 293 cells with inducible COX-2 over-expression; type: cell-based, human
Experimental: (A) Conditional expression level of FACL4 and COX-2 in stably transfected lines. Cells were treated with (+) or without (−) ponasterone (1 μg/ml) for 48 hr, and Western blotting was carried out with anti-FACL4 and anti-COX-2 antibodies, respectively. The loading was normalized with an anti-β actin antibody (ICN Biomedicals). […] The 293 cells stably transfected with an empty control vector (Ctl), FACL4 cDNA, COX-2 cDNA, and both FACL4 and COX-2 cDNAs were uninduced (−Pon) or induced for over-expression (+Pon) as in A. AA (300 μM) was added after 24 hr of induction and apoptosis was determined 44 hr later. […] The plot is a comparison of the relative apoptosis levels among the stable lines and is representative of three independent experiments. The values shown are the averages of triplicate determinations. […] Cells were uninduced (−Pon) or induced for over-expression as above. […] COX inhibitors were administered 6 hr later as indicated. AA (300 μM) was then added after 2 hr and apoptosis was determined 44 hr later. The plot is prepared as in B, and is a representative result from three independent experiments, in which triplicates were performed. Wt=wild-type, Mut=mutant, Met=50 μM 6-methoxy-2-naphthyl acetic acid, Indo=10 μM indomethacin. […] The COX-2, FACL4/COX-2 stable and control cells carrying an empty vector were induced for 48 hr, washed and incubated with 20 μM AA at 37° C. for 30 min. The amount of PGE2 synthesized was determined by ELISA. […] (E) The levels of free AA in the stable lines. The [^3H]
as §4
Stable cell lines. The ecdysone inducible system (Invitrogen) was used to construct stable lines over-expressing human FACL4, COX-2, COX-2 mutant, and both FACL4 and COX-2. […] The cDNAs were cloned into pIND(SP1) (Neomycin^r). The cDNA constructs, or the empty vector pIND(SP1) were transfected into EcR293 cells, which were then selected in 400 μg/ml geneticin and 400 μg/ml zeocin. […] The double stable line was generated by stably transfecting the COX-2 stable cells with another pIND(SP1)-FACL4 cDNA construct, in which the FACL4 cDNA was cloned into a pIND(SP1) (hygromycin^r) vector. The cells were selected in 400 μg/ml geneticin, 400 μg/ml zeocin, and 50 μg/ml hygromycin B. The positive colonies were screened as described above.

293 cells [4] = assay: Lipid peroxidation assay (MDA and 4-HNE) in 293 cells; type: cell-based, human
Experimental: FIG. 6: Cells exposed to AA show increased lipid peroxidation; apoptosis is blocked by antioxidants and Bcl-2. (A) The level of lipid oxidation products. The 293 cells were treated with AA at the indicated concentrations for 48 hr. The data presented are from one experiment that is representative of two independent experiments. […] Antioxidants were applied to 293 cells at the indicated concentration for 1 hr, and then AA (200 μM) was added. Apoptosis was determined after 44 hr and is shown relative to the level in control cells. […] Cells were transfected with the empty vector (Ctl) or with a cDNA encoding Bcl-2 and then were exposed to AA (300 μM). The level of apoptosis was determined after 44 hr. The values shown indicate the apoptosis level relative to control cells, and represent the means of triplicate determinations (P<0.05). The expression of Bcl-2 was detected by Western blotting. (D) The level of Bcl-2 expression in the stable cells. The stably transfected cells were induced, or not, with ponasterone for 24 or 48 hr. Cell lysates were blotted with an antibody to Bcl-2. Normalization was performed with an anti-β-actin antibody.
Lipid peroxidation assay. Cells were plated and treated with AA for 48 hr. […] The cellular malondialdehyde (MDA) and 4-hydroxynonenal (4-HNE) levels were determined with the lipid peroxidation assay kit (Calbiochem).

With CNc1ccc2oc(C[C@H]3O[C@@]4(CC[C@H]3C)O[C@H]([C@H](C)C(=O)c3ccc[nH]3)[C@H](C)C[C@H]4C)nc2c1C(=O)O [A23187] the “surviving fraction, induced cells” value ([1]; FACL4/COX-2 double stable cells induced with ponasterone) was 67.8%, the “surviving fraction, uninduced cells” value ([1]; FACL4/COX-2 double stable cells without induction) was 37.8% and the “AA release to the medium in response to A23187, control cells” value (FACL4/COX-2 cells; control cells) was “released a large amount of AA”. For the same compound, the “AA release to the medium in response to A23187, over-expression of FACL4 and COX-2” value (FACL4/COX-2 cells; induced FACL4/COX-2 cells) was “completely abolished”.

For CCCCC/C=C\C/C=C\C/C=C\C/C=C\CCCC(=O)O [AA, Arachidonic acid], the “apoptosis (mono- and oligo-nucleosomes) over the control” value (293 cells [2]; 293 cells, 300 μM) was 18 fold, the “cell survival, % of the control” value (293 cells [3]) was 23% and the “maximal increase in caspase 3-like activity compared to control cells” value (caspase 3) was roughly 4.5 fold. The “time of peak caspase 3-like activity” value (caspase 3) was 17 h, the “fold-increase in apoptosis after fatty acid treatment” value (COX-2 stable 293 cells; 200 μM) was 8.5 fold and the “reduction of fatty acid-induced apoptosis by inducing COX-2 over-expression” value (COX-2 stable 293 cells; COX-2 over-expression induced, n=3) was 36.7%. For the same compound, the “formation of lipid peroxidation products” value (293 cells [4]; 293 cells exposed to AA, 48 hr) was “enhanced formation of malondialdehyde and 4-hydroxy-2(E)-nonenal”.

For z-DMQD-fmk, the “blocking of AA-induced apoptosis by caspase inhibitor” value (293 cells [2]; 293 cells preincubated 1 hr with inhibitor, AA 300 μM) was “significantly blocked apoptosis” and the “effect on generation of peroxidized lipids” value (293 cells [4]; AA-exposed cells, not shown) was “did not block the generation of peroxidized lipids”.
